Measurements published in article PMC9499463, “Potent Chlorambucil-Platinum(IV) Prodrugs” (International Journal of Molecular Sciences, 2022).
Where “and” joins values, the source holds several entries; their conditions need not be identical. Equal values may be shown once.

How the values were obtained:
panel of cell lines = test: MTT growth inhibition assay, 72 h, over the cell line panel; type: cell-based, human; conditions: average over all cell lines tested; read-out: Average GI50 Values
BE2-C neuroblastoma = test: MTT growth inhibition assay, 72 h; type: cell-based, human
[1] = Lipophilicity by HPLC (log kw); type: physicochemical; conditions: chromatographic lipophilicity index, extrapolated to 100% d.i.H2O
Excerpt: For lipophilicity measurements, HPLC was utilized instead of the traditional shake-flask method, as described. A few studies have also reported the important and effective use of HPLC to measure the lipophilicity of compounds [66, 67]. Each complex was eluted under several isocratic ratios. A standard curve was then generated to calculate the log value of the capacity factor (log k) according to eqn (1). Following eqn (2), the percentage of organic solvent (CH3CN) in the mobile phase from each isocratic run was plotted against […] (Figure S34). Since log kw is the chromatographic lipophilicity index or measure of lipophilicity of the complex, a higher value corresponds to greater lipophilicity. Since PCLB, 5CLB, and 56CLB are structurally related, there were no significant variations in lipophilicity noted based on the calculated log kw values (Table 4). It is evident that PCLB is the least lipophilic of the group, with a calculated log kw value of 1.80, which is likely due to the absence of methyl groups in its phenanthroline system. 5CLB and 56CLB were the most lipophilic of the group with calculated log kw values of 1.90 and 1.87, respectively, and this is due to the presence of methyl substituents in their phenanthroline systems. […] Additionally, the chromatographic lipophilicity index of CLB was also measured using the abovementioned method, with a calculated log kw of 1.88, which is within the range observed for PCLB, 5CLB, and 56CLB. However, CLB was approximately 1-fold more lipophilic than PCLB. […] The order of increasing lipophilicity is […].
For lipophilicity measurements, analytical HPLC was utilized. Elution profiles were acquired on an Agilent Technologies 1260 Infinity instrument equipped with a Phenomenex Onyx^TM Monolithic C18-reverse phase column (100 × 4.6 mm, 5 µm pore size). The mobile phase consisted of solvents, A (0.06% TFA in d.i.H2O) and B (0.06% TFA in CH3CN/d.i.H2O (90:10)). Potassium iodide was used as an external dead volume marker to determine the dead time of the column. Retention times (TR) were measured at varying isocratic ratios ranging from 42% to 48% of solvent B at 1 mL/min. An injection volume of 10 µL was utilized. Capacity factors were determined according to Equation (1):(1) k=(TR−T0)/T0, where k is the capacity factor, TR is the retention time of the analyte, and T0 represents the dead time. A minimum of four different mobile compositions were used for each complex to calculate k. A linear plot was generated of log k against the concentration of CH3CN in the mobile phase to determine the value of log kw expressed by Equation (2):(2) logk=Sφ+logkw, where S is the slope, φ is the concentration of the CH3CN in the mobile phase and log kw represents the capacity factor of the complex in 100% d.i.H2O. […]

U87 glioblastoma = test: MTT growth inhibition assay, 72 h; type: cell-based, human
HT29 colon = test: MTT growth inhibition assay, 72 h; type: cell-based, human; conditions: MTT, 72 h
Du145 prostate = test: MTT growth inhibition assay, 72 h; type: cell-based, human; conditions: for GI50: MTT, 72 h
MIA pancreas = test: MTT growth inhibition assay, 72 h; type: cell-based, human; conditions: MTT, 72 h
A2780 ovarian = test: MTT growth inhibition assay, 72 h; type: cell-based, human
MCF-7 breast = test: MTT growth inhibition assay, 72 h; type: cell-based, human; conditions: for GI50: MTT, 72 h
H460 lung = test: MTT growth inhibition assay, 72 h; type: cell-based, human
[2] = Stability in solvent systems by HPLC; type: physicochemical; conditions: room temperature
Method: The stability of PCLB, 5CLB, and 56CLB was evaluated by HPLC. The complexes were tested in three solvent systems, 10 mM PBS (~7.4 pH), 0.9% NaCl and d.i.H2O/DMSO (50:50). This process was followed for 1 h at room temperature for each complex in each solvent system (Table 3 and Figure S32). However, it is noteworthy that when these complexes are left in solution for more extended periods, reduction to the corresponding platinum(II) species appears inevitable (Figure S33). This is likely influenced by the nature of the coordinated CLB ligand, which is highly susceptible to rapid hydrolysis due to its functional group.
The stability of PCLB, 5CLB, and 56CLB was monitored using an Agilent Technologies 1260 Infinity instrument equipped with a Phenomenex Onyx^TM Monolithic C18-reverse phase column (100 × 4.6 mm, 5 µm pore size). The mobile phase consisted of solvents, A (0.06% TFA in d.i.H2O) and B (0.06% TFA in CH3CN/d.i.H2O (90:10)). An injection volume of 5 µL was utilized and eluted with a 0–100% linear gradient over 15 min with a flow rate of 1 mL/min, at the set wavelengths of 214 and 254 nm. Each complex was dissolved separately in three solvent systems including, 10 mM phosphate-buffered saline (PBS) at ~7.4 pH, 0.9% sodium chloride (NaCl) or standard saline solution and d.i.H2O/DMSO (50:50). Each HPLC run per solvent system was followed for 1 h at room temperature.

[3] = tested on: non-tumor-derived MCF10A breast line; test: MTT growth inhibition assay, 72 h; type: cell-based, human

Compound | GI50 (panel of cell lines) | GI50 (BE2-C neuroblastoma) [nM] | log kw [1] | GI50 (U87 glioblastoma) [nM] | GI50 (HT29 colon) | GI50 (Du145 prostate) | GI50 (MIA pancreas) [nM] | GI50 (A2780 ovarian) [nM] | fold by which the cisplatin prodrug incorporating two CLB ligands (Ma et al.) is less potent (MCF-7 breast; MCF-7 cell line) [fold] | GI50 (MCF-7 breast) [nM] | GI50 (H460 lung) [nM] | HPLC Peak Areas at 254 nm ([2]; 0.9% NaCl, 30 min) [%] | HPLC Peak Areas at 254 nm ([2]; 0.9% NaCl, 1 h) [%] | HPLC Peak Areas at 254 nm ([2]; PBS (~7.4 pH), 30 min) [%] | HPLC Peak Areas at 254 nm ([2]; PBS (~7.4 pH), 1 h) [%] | HPLC Peak Areas at 254 nm ([2]; d.i.H2O/DMSO (50:50), 30 min) [%] | HPLC Peak Areas at 254 nm ([2]; d.i.H2O/DMSO (50:50), 1 h) [%] | GI50 [3] [nM] | other results
O=C(CCCc1ccc(N(CCCl)CCCl)cc1)[O][Pt-2]12([OH])([NH2+][C@H]3CCCC[C@@H]3[NH2+]1)[n+]1cccc3ccc4ccc[n+]2c4c31.O=[N+]([O-])[O-].O=[N+]([O-])[O-] [PCLB, [Pt^IV(1,10-phenanthroline)(S,S-DACH)(CLB)(OH)](NO3)2] | 423 ± 0.07 nM | 440 ± 0.03 | 1.80 | 1200 ± 0.28 | 170 ± 0.046 nM | 210 ± 0.12 nM | 190 ± 0.032 | 300 ± 0.048 | 3 | 680 ± 0.043 | 460 ± 0.063 | 89.4 | 87.5 | 85.0 | 83.1 | 93.2 | 92.4 | 300 ± 0.045 | 
Cc1c(C)c2cccnc2c2ncccc12.N[C@H]1CCCC[C@@H]1N.O=C([O-])CCCc1ccc(N(CCCl)CCCl)cc1.O=[N+]([O-])[O-].O=[N+]([O-])[O-].[OH-].[Pt+4] [56CLB, [Pt^IV(5,6-dimethyl-1,10-phenanthroline)(S,S-DACH)(CLB)(OH)](NO3)2] | 40 nM and 44 nM | 140 ± 0.012 | 1.87 and 1.90 | 93 ± 0.0067 | 6 nM and 6.1 nM | 3 nM and 2.7 nM | 11 ± 0.003 | 21 ± 0.0047 | 35 | 63 ± 0.015 | 13 ± 0.0056 | 84.6 | 82.5 | 78.2 | 75.2 | 85.0 | 84.3 | 7 ± 0.004 | fold increase in potency compared to CLB (Du145 prostate; Du145 prostate cell line): 10,000 fold; fold more potent than cisplatin (Du145 prostate; Du145 prostate cell line): at least 440 fold; fold more potent than oxaliplatin-CLB prodrug of Qin et al. (MCF-7 breast): ~200 fold; fold more potent than cisplatin-CLB prodrug of Qin et al. (MCF-7 breast; MCF-7 cell line): about 63 fold
Cc1cc2cccnc2c2ncccc12.N[C@H]1CCCC[C@@H]1N.O=C([O-])CCCc1ccc(N(CCCl)CCCl)cc1.O=[N+]([O-])[O-].O=[N+]([O-])[O-].[OH-].[Pt+4] [5CLB, [Pt^IV(5-methyl-1,10-phenanthroline)(S,S-DACH)(CLB)(OH)](NO3)2] | 94 ± 0.01 nM | 230 ± 0.039 | 1.90 and 1.87 | 250 ± 0.015 | 19 ± 0.0054 nM | 14 ± 0.004 nM | 34 ± 0.005 | 46 ± 0.015 | 12 | 180 ± 0.017 | 39 ± 0.013 | 73.9 | 72.4 | 68.8 | 67.3 | 76.5 | 75.8 | 22 ± 0.0045 | 
